The target in one assay is GmhA of E. coli (Escherichia coli, UniProt P63224). The experiment in a line: Inhibition of the enzymatic activity of GmhA (luminescent assay). The assay is classed as biochemical. The protocol:
Inhibition of the Enzymatic Activity of GmhA (Luminescent Assay):
The assay buffer “AB” contained 50 mM Hepes pH7.5, 1 mM MnCl2, 25 mM KCl, 0.012% Triton-X100, 1 mM dithiothreitol (DTT) and 0.1 μM Myelin basic protein (MBP). The following components were added in a white polystyrene Costar plate up to a final volume of 30 μL: 10 μL inhibitor dissolved in DMSO/water 50/50, and 20 μL GmhA of E. coli in AB. After 30 min of pre-incubation at room temperature, 30 μL of Substrates mix in AB were added in each well to a final volume of 60 μL. This reaction mixture was then composed of 2 nM GmhA, 3 μM sedoheptulose-7-phosphate (Sigma), 3 μM ATP (Sigma) and 50 nM HldE of E. coli in assay buffer. After 30 minutes of incubation at room temperature, 100 μL of the revelation mix were added to a final volume of 160 μL, including the following constituents at the respective final concentrations: 10000 light units/mL luciferase (Sigma), 20 μM D-luciferin (Sigma), 100 μM N-acetylcysteamine (Aldrich). Luminescence intensity was immediately measured on Luminoskan (Thermofisher) and converted into inhibition percentages. For IC50 determinations, the inhibitor was tested at 6 to 10 different concentrations, and the related inhibitions were fitted to a classical Langmuir equilibrium model using XLFIT (IDBS).

In assay [1] the test system is E. coli C7 (018:K1:H7) LPS heptosylation. The experiment in a line: Inhibition of E. coli C7 (018:K1:H7) LPS biosynthesis (LPS gel electrophoresis, Re-LPS band). As to conditions: read-out: EC50 of E. coli C7 LPS heptosylation inhibition. The assay is classed as cell-based. The protocol:
Inhibition of E. coli C7 (018:K1:H7) LPS Biosynthesis:
The inner core contains several heptose residues. An inhibitor of the LPS heptosylation pathway should therefore reduce dramatically the size of LPS from full-length to the so-called ‘Re-LPS’ limited to lipid A branched with 2 Kdo residues.
The effect of heptosylation inhibitors on E. coli LPS was assessed as described below. The compounds to be tested were prepared in deionised water/DMSO (50/50) solutions and added (25 μL) in sterile culture microtubes. The strain used in this study was E. coli C7 (018:K1:H7). The bacteria were isolated on tryptic soy agar (TSA) overnight. Isolated colonies were cultured in 10 mL of Luria-Bertani medium (LB) at 37° C. up to an optical density (OD) of typically 0.15. These exponentially growing bacteria were finally diluted to 5e5 cfu/mL and added in each well (225 μL) for incubation with the compounds at 37° C. for approximately 5 hours, up to an optical density of ≈0.2-0.4. Some test compounds e.g. phospho-sugars required Glucose-6-Phosphate (G6P, from Sigma) to be added in the culture medium in order to activate their active transport into the bacterial cytosol via the phospho-sugar transporter UhpT. This was achieved by adding in the culture tube 2.5 μL of a 10 mM water solution of G6P (100 μM final concentration).
Bacterial cultures were normalized via OD determination, pelleted and washed with 1 mL Phosphate-Buffer-Saline (PBS). The pellets were then denatured for 10 min at 95-100° C. in 50 μL of Sodium dodecyl sulphate 0.2% (SDS), beta-mercaptoethanol 1%, Glycerol 36%, Tris pH 7.4 30 mM and bromophenol blue 0.001%. Samples were cooled down to room temperature, supplemented with 1.5 μl of proteinase K at 20 mg/mL, incubated for 1 hour at 55° C. and centrifuged for […] at 13,000 rpm at 25° C. The resulting supernatant, containing LPS, was finally analysed by SDS-PAGE electrophoresis.
LPS SDS-PAGE Electrophoresis:
Polyacrylamide gels (16%/4% acrylamide for separation and concentration respectively) were prepared, loaded with 8 μL of LPS extracts and migrated.
Gels were incubated overnight in 5% acetic acid/40% ethanol/deionised water, treated by 1% periodic acid/5% acetic acid for 15 min, washed 4 times for 10 min in deionised water and finally incubated for 18 min in the dark in a silver nitrate solution composed of 56 mL NaOH 0.1N, 4 mL ammoniac 33%, 45 mL AgNO3 5% (Tsai and Frasch) and 195 mL deionised water. Gels were then washed extensively in deionised water for 30 min and incubated for 10-15 min (up to LPS bands apparition) in the revelation mix composed of 300 mL deionised water, 300 μL formaldehyde 36.5% (Fluka) and 100 μL citric acid 2.3M. The revelation was stopped by incubating the gels in acetic acid 10% for 5 min. Gels were finally washed in deionised water, numerized with a Samsung PL51 camera and analysed by ImageJ software. The percentage of inhibition of LPS heptosylation was defined as the relative area of the Re-LPS band compared to the cumulated areas of Re-LPS and Core-LPS bands.

A further assay relates to E. coli C7 (O18:K1:H7). The experiment in a line: Combination with antibiotics on E. coli C7 (MIC of the antibiotics). The assay is classed as cell-based. To be noted: in the presence of 100 μM G6P; for MIC of the antibiotic alone: without test compound. The protocol:
Combination with Antibiotics on E. coli C7 (018:K1:H7):
The compound to be tested was diluted in 50 mM HEPES buffer pH 7.4 from 10 mM stock solution. 5 μL of compound dilution or buffer were distributed in a sterile clear round bottom 96-well polystyrene microplate (Corning). 5 μL of serial 2-fold dilutions of reference antibiotics (Erythromycin (Fluka), Rifampicin (Fluka), or Synercid® (Monarch Pharmaceuticals)) in DMSO were added. An exponentially growing preculture of E. coli C7 (O18:K1:H7) in LB was diluted to 1e4 cfu/mL and supplemented with 100 μM G6P, and 90 μL of this suspension were added to the microplates. After overnight incubation at 37° C., the minimal inhibitory concentration (MIC) of the antibiotics were determined for each test compound concentration, as the lowest antibiotic concentration for which no bacterial pellet is visible without magnification.

Where [2] appears, read: test compound at concentrations <1 mM.

Read-outs that look alike come from different tables or passages of the source.

For orientation: IC50 means the point on the concentration scale where inhibition reaches its midpoint. Broadly, the EC50 is the concentration at which the effect is half-maximal.

GmhA of E. coli, sequence (P63224 whole entry): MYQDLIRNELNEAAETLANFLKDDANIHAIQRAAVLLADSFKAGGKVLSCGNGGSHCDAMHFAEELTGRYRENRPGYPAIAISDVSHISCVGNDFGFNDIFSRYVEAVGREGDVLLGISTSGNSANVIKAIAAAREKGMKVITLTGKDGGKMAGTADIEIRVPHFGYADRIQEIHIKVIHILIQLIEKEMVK

As for `O=CN(O)C[C@H](O)[C@H](O)[C@H](O)COP(=O)([O-])O.[Na+]` [Example 2, N-hydroxy-N-formylamino-1-deoxy-D-ribitol-5-phosphate], at GmhA of E. coli (read-out: IC50 GmhA E. coli), the IC50 worked out at 0.0024 µM. Further, the EC50 in assay [1] (Escherichia coli) amounted to 18 µM. In the assay with E. coli C7 (O18:K1:H7) (setting [2]), the “MIC of Synercid in combination with the compound” value came out at 8 µg/mL, the “MIC of erythromycin in combination with the compound” value came to 1 µg/mL, the “MIC of rifampicin in combination with the compound” value was found to be 0.25 µg/mL and the “potentiation of Synercid” value is recorded as 16 fold. Moreover, in the assay with E. coli C7 (O18:K1:H7) (setting [2]), the potentiation of erythromycin worked out at 32 fold and the potentiation of rifampicin is on record as 16 fold.
In the case of `CO[C@H]1/C=C/O[C@@]2(C)Oc3c(C)c(O)c4c(O)c(c(/C=N/N5CCN(C)CC5)c(O)c4c3C2=O)NC(=O)/C(C)=C\C=C\[C@H](C)[C@H](O)[C@@H](C)[C@@H](O)[C@@H](C)[C@H](OC(C)=O)[C@@H]1C` [rifampicin, Rifampicin, reference compound], in the assay on E. coli C7 (O18:K1:H7), the “MIC of the antibiotic alone” value turned out to be 4 µg/mL.
On to `O=CN(O)C(CO)[C@H](O)[C@H](O)[C@H](O)CCP(=O)(O)O` (single isomer, unassigned) [Example 7], for which the IC50 on GmhA of E. coli (read-out: IC50 GmhA E. coli) amounted to 0.046 µM. For the same compound, the EC50 in assay [1] (Escherichia coli) came out at 220 µM.
For `O=CN(O)C(CO)[C@H](O)[C@H](O)[C@H](O)CCP(=O)(O)O` (single isomer, unassigned) [Example 8], at GmhA of E. coli (read-out: IC50 GmhA E. coli), the IC50 is 0.027 µM. Also, the EC50 in assay [1] was 180 µM.
`O=CN(O)C[C@H](O)[C@H](O)[C@H](O)CC(F)P(=O)(O)O` (stereo partly drawn) [Example 9, [1-Fluoro-6-(formyl-hydroxy-amino)-(3R,4R,5S)-3,4,5-trihydroxy-hexyl]-phosphonic acid] displayed an IC50 against GmhA of E. coli (IC50 GmhA E. coli) of 0.015 µM. Moreover, the EC50 in assay [1] (Escherichia coli) came out at 76 µM.
Consider `CC[C@H]1OC(=O)[C@H](C)[C@@H](O[C@H]2C[C@@](C)(OC)[C@@H](O)[C@H](C)O2)[C@H](C)[C@@H](O[C@@H]2O[C@H](C)C[C@H](N(C)C)[C@H]2O)[C@](C)(O)C[C@@H](C)C(=O)[C@H](C)[C@@H](O)[C@]1(C)O` [erythromycin, Erythromycin, reference compound], for which, in the assay on E. coli C7 (O18:K1:H7), the “MIC of the antibiotic alone” value worked out at 32 µg/mL.
In turn, `O=CN(O)C[C@H](O)[C@H](O)[C@H](O)CCP(=O)(O)O` [Example 3, [6-(Formyl-hydroxy-amino)-(3R,4R,5S)-3,4,5-trihydroxy-hexyl]-phosphonic acid] registered an IC50 against GmhA of E. coli (IC50 GmhA E. coli) of 0.003 µM. Besides, the EC50 in assay [1] (Escherichia coli) is 18 µM.
